Test results reported in US20220031800A1, “PEPTIDES FOR TREATING NON-EXUDATIVE MACULAR DEGENERATION AND OTHER DISORDERS OF THE EYE” (Allegro Pharmaceuticals, LLC, priority 2019, published 2022).
Square brackets hold non-standard residues; d marks the D form. Peptide text beside a SMILES is read from it. Cya = N[C@@H](CS(=O)(=O)O)C(=O)O

Experiments:
[1] = system: study eye of subjects with intermediate non-exudative AMD; test: SD-OCT Analysis 1 (thickness and volume of retinal layers, EZ defect area, GA); type: in vivo, human
Experimental: Numerous study assessments were conducted at various time points throughout the study. Included among these study assessments were; refractive eye examinations, determinations of BCVA AND low-luminance BCVA, Lanthony D-15 color vision test, measurement of intraocular pressure (IOP), Indirect ophthalmoscopy/dilated fundus examinations and spectral-domain optical coherence tomography (SD-OCT). Also, blood and saliva samples were obtained from each subject for genetic analysis. The above-listed study assessments were performed at the time points indicated in Table 1, below: The OCT scans were analyzed by two (2) unrelated experts. The mean thickness and mean volume of retinal subfields and layer segments were analyzed at screening (pre-treatment) and at Week 12 for Group 1 subjects and at Week 32 for Group 2 subjects. In addition to the quantitative analysis of OCT images, a qualitative assessment of the OCT images at baseline (pre-treatment) was performed to identify GA anywhere in the retina, in the fovea (1-mm central subfield), and in the foveal center. Quantitative analysis of the OCT images was also performed to measure changes in anatomical measurements over time.

[2] = system: primary mouse retinal neuron cells; test: Trypan blue viability of primary mouse retinal neuron cells exposed to kainic acid; type: cell-based, CD1 mice; settings: 1.0 mg/mL risuteganib alone
Experimental: Purpose: Investigate neuroprotective properties of risuteganib in primary mouse retinal neuron cells exposed to kainic acid, a neuroexcitatory compound that activates glutamate receptors, resulting in overstimulation and cell death.
Methods: Fresh retina were collected from CD1 mice and then mechanically dissociated with sterile Pasteur pipette. Cell suspensions were then dispensed into petri dish and incubated for 6 hours. Cells were then exposed to the experimental conditions: (1) untreated control, (2) 1.0 mg/mL risuteganib, (3) 500 μM kainic acid (KA), and (4) 1.0 mg/mL risuteganib for 24 hours before 500 μM kainic acid exposure. 8 hours after kainic acid treatment, dead and live cell numbers were measured using Trypan blue exclusion assay on a hemocytometer.

[3] = system: human RPE cells (ARPE-19); test: Trypan blue viability of human RPE cells (ARPE-19) exposed to hydrogen peroxide; type: cell-based; settings: 1.0 mg/mL risuteganib alone
Experimental: Purpose: Investigate cytoprotective properties of risuteganib in human RPE cells (ARPE-19) exposed to hydrogen peroxide, which is a reactive oxygen species that can induce cell death at elevated levels. Methods: ARPE-19 cells were cultured in laminin-coated trans-wells for 2 weeks to induce differentiation. Cells were then exposed to the experimental conditions: […]

[4] = baseline to Week 32, risuteganib arm n = 22
[5] = risuteganib arm (Week 32) vs sham arm (Week 12)

Which results are given for `C[C@@H](O)[C@H](NC(=O)[C@H](CS(=O)(=O)O)NC(=O)CNC(=O)[C@H](CCCNC(=N)N)NC(=O)CN)C(=O)N1CCC[C@H]1C(=O)O` [risuteganib, Glycyl-L-arginylglycyl-3-sulfo-L-alanyl-L-threonyl-L-proline] (H-GRG[Cya]TP-OH)?
Mean change in total volume: Inner retina, inferior subfield [1, 4]: 0.000 mm^3; Mean change in total volume: Inner retina, nasal subfield [1, 4]: −0.001 mm^3; Mean change in total volume: Inner retina, superior subfield [1, 4]: −0.005 mm^3; Mean change in total volume: Inner retina, temporal subfield [1, 4]: 0.000 mm^3; Mean change in total volume: Outer retina, central subfield [1, 4]: −0.003 mm^3; Mean change in total volume: Outer retina, inferior subfield [1, 4]: −0.004 mm^3; Mean change in total volume: Outer retina, nasal subfield [1, 4]: −0.002 mm^3; Mean change in total volume: Outer retina, superior subfield [1, 4]: −0.000 mm^3; Mean change in total volume: Outer retina, temporal subfield [1, 4]: −0.004 mm^3; Mean change in total volume: Photoreceptor, central subfield [1, 4]: −0.001 mm^3; Mean change in total volume: Photoreceptor, inferior subfield [1, 4]: −0.001 mm^3; Mean change in total volume: Photoreceptor, nasal subfield [1, 4]: −0.000 mm^3; Mean change in total volume: Photoreceptor, superior subfield [1, 4]: 0.000 mm^3; Mean change in total volume: Photoreceptor, temporal subfield [1, 4]: −0.000 mm^3; Mean change in total volume: RPEDC, central subfield [1, 4]: −0.001 mm^3; Mean change in total volume: RPEDC, inferior subfield [1, 4]: 0.001 mm^3; Mean change in total volume: RPEDC, nasal subfield [1, 4]: 0.001 mm^3; Mean change in total volume: RPEDC, superior subfield [1, 4]: 0.003 mm^3; Mean change in total volume: RPEDC, temporal subfield [1, 4]: 0.001 mm^3; Change in EZ defect area, Difference [1, 5]: 0.025 mm^2; Mean change in mean thickness: Inner retina, central subfield, Difference [1, 5]: 0.690 μm; Mean change in mean thickness: Inner retina, foveal center, Difference [1, 5]: 15.404 μm; Mean change in mean thickness: Inner retina, inferior subfield, Difference [1, 5]: −1.607 μm; Mean change in mean thickness: Inner retina, nasal subfield, Difference [1, 5]: −0.949 μm; Mean change in mean thickness: Inner retina, superior subfield, Difference [1, 5]: −4.188 μm; Mean change in mean thickness: Inner retina, temporal subfield, Difference [1, 5]: 0.092 μm; Mean change in mean thickness: Outer retina, central subfield, Difference [1, 5]: −3.812 μm; Mean change in mean thickness: Outer retina, foveal center, Difference [1, 5]: −14.794 μm; Mean change in mean thickness: Outer retina, inferior subfield, Difference [1, 5]: 0.460 μm; Mean change in mean thickness: Outer retina, nasal subfield, Difference [1, 5]: 1.388 μm; Mean change in mean thickness: Outer retina, superior subfield, Difference [1, 5]: 0.768 μm; Mean change in mean thickness: Outer retina, temporal subfield, Difference [1, 5]: −1.158 μm; Mean change in mean thickness: Photoreceptor, central subfield, Difference [1, 5]: −2.545 μm; Mean change in mean thickness: Photoreceptor, foveal center, Difference [1, 5]: 1.342 μm; Mean change in mean thickness: Photoreceptor, inferior subfield, Difference [1, 5]: −0.781 μm; Mean change in mean thickness: Photoreceptor, nasal subfield, Difference [1, 5]: −0.379 μm; Mean change in mean thickness: Photoreceptor, superior subfield, Difference [1, 5]: −0.161 μm; Mean change in mean thickness: Photoreceptor, temporal subfield, Difference [1, 5]: −0.694 μm; Mean change in mean thickness: RPEDC, central subfield, Difference [1, 5]: −0.167 μm; Mean change in mean thickness: RPEDC, foveal center, Difference [1, 5]: −1.402 μm; Mean change in mean thickness: RPEDC, inferior subfield, Difference [1, 5]: 1.623 μm; Mean change in mean thickness: RPEDC, nasal subfield, Difference [1, 5]: −0.511 μm; Mean change in mean thickness: RPEDC, superior subfield, Difference [1, 5]: 2.739 μm; Mean change in mean thickness: RPEDC, temporal subfield, Difference [1, 5]: 2.536 μm; Mean change in total volume: Inner retina, central subfield, Difference [1, 5]: 0.001 mm^3; Mean change in total volume: Inner retina, inferior subfield, Difference [1, 5]: −0.002 mm^3; Mean change in total volume: Inner retina, nasal subfield, Difference [1, 5]: −0.002 mm^3; Mean change in total volume: Inner retina, superior subfield, Difference [1, 5]: −0.007 mm^3; Mean change in total volume: Inner retina, temporal subfield, Difference [1, 5]: 0.000 mm^3; Mean change in total volume: Outer retina, central subfield, Difference [1, 5]: −0.003 mm^3; Mean change in total volume: Outer retina, inferior subfield, Difference [1, 5]: 0.001 mm^3; Mean change in total volume: Outer retina, nasal subfield, Difference [1, 5]: 0.002 mm^3; Mean change in total volume: Outer retina, superior subfield, Difference [1, 5]: 0.001 mm^3; Mean change in total volume: Outer retina, temporal subfield, Difference [1, 5]: −0.002 mm^3; Mean change in total volume: Photoreceptor, central subfield, Difference [1, 5]: −0.002 mm^3; Mean change in total volume: Photoreceptor, inferior subfield, Difference [1, 5]: −0.002 mm^3; Mean change in total volume: Photoreceptor, nasal subfield, Difference [1, 5]: −0.001 mm^3; Mean change in total volume: Photoreceptor, superior subfield, Difference [1, 5]: −0.000 mm^3; Mean change in total volume: Photoreceptor, temporal subfield, Difference [1, 5]: −0.001 mm^3; Mean change in total volume: RPEDC, central subfield, Difference [1, 5]: −0.000 mm^3; Mean change in total volume: RPEDC, inferior subfield, Difference [1, 5]: 0.002 mm^3; Mean change in total volume: RPEDC, nasal subfield, Difference [1, 5]: −0.001 mm^3; Mean change in total volume: RPEDC, superior subfield, Difference [1, 5]: 0.005 mm^3; Mean change in total volume: RPEDC, temporal subfield, Difference [1, 5]: 0.004 mm^3; Change in cell viability, treatment alone [2]: did not induce detectable change in cell viability; Change in cell viability, treatment alone [3]: did not induce detectable change in cell viability
